Where two headings read alike, the source gives them in different places.

The test system of series [1] is Pat-7 human ovarian carcinoma.
A short description of a further series: in vivo. Conditions: Balb/c nu/nu, mouse.
The nature of series [2]: In vivo antitumor testing, Pat-26 xenograft. Conditions: Balb/c nu/nu, mouse, in vivo, iv.
In series [3] the test system is Pat-26 human pancreatic carcinoma. Description: In vivo antitumor testing, Pat-26 xenograft.
Series [4] relates to panel of tumor cell lines. Description: Cytotoxicity assay (tetrazolium-based colorimetric), panel of tumor cell lines. Conditions: 72 h, read-out: IC50 (median cytotoxic concentration).
The subject of another series is Pat-21 breast carcinoma. On the set-up: species or system nude mice. The note with it: mouse, in vivo.
Series [5] can be described thus: In vivo antitumor testing, HCT116/VM46 xenograft. Conditions: Balb/c nu/nu, mouse, in vivo, iv.
Series [6] relates to HCT116/VM46 human colon carcinoma xenograft. Nature of the series: In vivo antitumor testing, HCT116/VM46 xenograft.
In series [7] the test system is tubulin isolated from calf brain. Type of series: biochemical.
The test system of series [8] is A2780Tax ovarian carcinoma xenograft (mutated tubulin). On the set-up: species or system nude mice. Conditions: mouse, in vivo.
For the next series, the system named is HCT116/VM46 cells. Type of series: cell-based, human.
Where [9] appears, read: paclitaxel, results obtained in separate studies.

With `C/C(=C\c1csc(CN)n1)[C@@H]1C[C@@H]2O[C@]2(C)CCC[C@H](C)[C@H](O)[C@@H](C)C(=O)C(C)(C)[C@@H](O)CC(=O)O1` (relative stereo) [BMS-310705, [1S-[1R*,3R*(E),7R*,10S*,11R*,12R*,16S*]]-7,11-dihydroxy-8,8,10,12,16-pentamethyl-3-[1-methyl-2-(2-aminomethyl-4-thiazolyl)ethenyl]-4,17-dioxabicyclo[14.1.0]heptadecane-5,9-dione], the “gross log cell kill (LCK)” value in series [1] (BMS-310705 (PO), PO, q4dx3 at OD/MTD 90 mg/kg, Expt. 18) came to 2.4. The “LCK (gross log cell kill)” value in [1] (BMS-310705, IV, q4dx3 at OD 8 mg/kg, Expt. 14) is recorded as 2.4; in series [3] (BMS-310705, IV, q4dx3 at OD 10 mg/kg, Expt. 968) it was 1.2; with Pat-21 breast carcinoma, above 4.1; in [6] (BMS-310705, IV, q4dx3 at OD 7.5 mg/kg, Expt. 40) it was 1.5. Further, the “antitumor activity given orally compared with IV administration (in words)” value in [1] (PO vs IV) is “equivalent to that produced by IV drug administration”. Further, in series [1] (PO, every 4 days x 3 schedule, FIG. 4), the “oral antitumor activity (in words)” value is listed as “highly active orally”. Further, the MTD in the series “in vivo” (iv) amounted to 8 mg/kg; in the series “in vivo” (po, pH 8) it was 90 mg/kg; in series [2] it was 10 mg/kg; in [5], 7.5 mg/kg. Also, the “water solubility (in words)” value in “Water solubility” is reported as “highly water-soluble”. Also, the IC50 in series [4] lay in the range of 0.9 to 3.5 nM. The “Polymerization Potency, EC0.01” value in series [7] is 7.4 µM. Besides, the “Ratio of Polymerization Potency of Analog/Paclitaxel” value (“Ratio … of Analog/Paclitaxel” for short) in series [7] worked out at 1.7. The “tubulin polymerization potency relative to paclitaxel (fold more potent)” value in series [7] is reported as “about 2.5 fold”.
Turning to `C/C(=C\c1csc(C)n1)[C@@H]1C[C@@H]2O[C@@H]2CCC[C@H](C)[C@H](O)[C@@H](C)C(=O)C(C)(C)[C@@H](O)CC(=O)O1` [BMS-212188, Epothilone A], in series [7], the “Ratio … of Analog/Paclitaxel” value was 0.4. Moreover, the “Polymerization Potency, EC0.01” value in series [7] (concentration inducing initial slope of 0.01 OD/minute) amounted to 2.0 µM.
In the case of `CC(=O)O[C@H]1C(=O)[C@@]2(C)[C@H]([C@H](OC(=O)c3ccccc3)[C@]3(O)C[C@H](OC(=O)[C@H](O)[C@@H](NC(=O)c4ccccc4)c4ccccc4)C(C)=C1C3(C)C)[C@]1(OC(C)=O)CO[C@@H]1C[C@@H]2O` [Paclitaxel, paclitaxel, reference compound], the “LCK (gross log cell kill)” value in [1] (setting [9]) was 0.8; in [3] (setting [9]), 0.4; in series [8] it was 0.8; in the series with Pat-21 breast carcinoma it was 0.3; in [6] (setting [9]), 0.55. The “ratio of concentration (R/S or resistance ratio) to inhibit cell growth by 50%” value with HCT116/VM46 cells was 155 fold.
Regarding Epothilone B [BMS-205535], in [7], the “Polymerization Potency, EC0.01” value is 1.8 µM and the “Ratio … of Analog/Paclitaxel” value came out at 0.3.
